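How tested: cells in 96-well plates exposed to compound for 48 hours at five concentrations. Definition used: TGI = concentration required for complete inhibition of growth.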
What was measured:
Experiment in all cases: inhibition of tumour cell growth, NCI panel, 48 h
786-0 renal = test system: 786-0 renal
A498 renal = test system: A498 renal
A549 NSCLC = test system: A549 NSCLC
ACHN renal = test system: ACHN renal
BT-549 breast = test system: BT-549 breast
CAKI-1 renal = test system: CAKI-1 renal
CCRF-CEM leukemia = test system: CCRF-CEM leukemia
COLO 205 colon = test system: COLO 205 colon
DU-145 prostate = test system: DU-145 prostate
EKVX NSCLC = test system: EKVX NSCLC
HCC-2998 colon = test system: HCC-2998 colon
HCT-116 colon = test system: HCT-116 colon
HCT-15 colon = test system: HCT-15 colon
HL-60(TB) leukemia = test system: HL-60(TB) leukemia
HOP-62 NSCLC = test system: HOP-62 NSCLC
HOP-92 NSCLC = test system: HOP-92 NSCLC
HS 578T breast = test system: HS 578T breast
HT29 colon = test system: HT29 colon
IGROV1 ovarian = test system: IGROV1 ovarian
K-562 leukemia = test system: K-562 leukemia
KM12 colon = test system: KM12 colon
LOX IMVI melanoma = test system: LOX IMVI melanoma
M14 melanoma = test system: M14 melanoma
MALME-3M melanoma = test system: MALME-3M melanoma
MCF7 breast = test system: MCF7 breast
MDA-MB-231 breast = test system: MDA-MB-231 breast
MDA-MB-435 = test system: MDA-MB-435
MDA-N = test system: MDA-N
MOLT-4 leukemia = test system: MOLT-4 leukemia
NCI-H226 lung = test system: NCI-H226 lung
NCI-H23 lung = test system: NCI-H23 lung
NCI-H460 lung = test system: NCI-H460 lung
NCI-H522 lung = test system: NCI-H522 lung
NCI/ADR-RES ovarian = test system: NCI/ADR-RES ovarian
OVCAR-3 ovarian = test system: OVCAR-3 ovarian
OVCAR-4 ovarian = test system: OVCAR-4 ovarian
OVCAR-5 ovarian = test system: OVCAR-5 ovarian
OVCAR-8 ovarian = test system: OVCAR-8 ovarian
PC-3 prostate = test system: PC-3 prostate
RPMI-8226 leukemia = test system: RPMI-8226 leukemia
RXF 393 renal = test system: RXF 393 renal
SF-268 CNS = test system: SF-268 CNS
SF-295 CNS = test system: SF-295 CNS
SF-539 CNS = test system: SF-539 CNS
SK-MEL-2 melanoma = test system: SK-MEL-2 melanoma
SK-MEL-28 melanoma = test system: SK-MEL-28 melanoma
SK-MEL-5 melanoma = test system: SK-MEL-5 melanoma
SK-OV-3 ovarian = test system: SK-OV-3 ovarian
SN12C renal = test system: SN12C renal
SNB-19 CNS = test system: SNB-19 CNS
SNB-75 CNS = test system: SNB-75 CNS
SR leukemia = test system: SR leukemia
SW-620 colon = test system: SW-620 colon
T-47D breast = test system: T-47D breast
TK-10 renal = test system: TK-10 renal
U251 CNS = test system: U251 CNS
UACC-257 melanoma = test system: UACC-257 melanoma
UACC-62 melanoma = test system: UACC-62 melanoma
UO-31 renal = test system: UO-31 renal
DLD-1 colon = test system: DLD-1 colon
DMS 114 small cell lung = test system: DMS 114 small cell lung
KM20L2 colon = test system: KM20L2 colon
M19-MEL melanoma = test system: M19-MEL melanoma
HOP-18 NSCLC = test system: HOP-18 NSCLC

Compound: C[N+](C)(C)CCOP(=O)(O)OP(=O)([O-])OCC1CCC(n2ccc(N)nc2=O)O1 (centres undefined)
- TGI (786-0 renal): > 100 µM
- TGI (A498 renal): > 100 µM
- TGI (A549 NSCLC): > 100 µM
- TGI (ACHN renal): > 100 µM
- TGI (BT-549 breast): > 100 µM
- TGI (CAKI-1 renal): > 100 µM
- TGI (CCRF-CEM leukemia): > 100 µM
- TGI (COLO 205 colon): > 100 µM
- TGI (DU-145 prostate): > 100 µM
- TGI (EKVX NSCLC): > 100 µM
- TGI (HCC-2998 colon): > 100 µM
- TGI (HCT-116 colon): > 100 µM
- TGI (HCT-15 colon): > 100 µM
- TGI (HL-60(TB) leukemia): > 100 µM
- TGI (HOP-62 NSCLC): > 100 µM
- TGI (HOP-92 NSCLC): > 100 µM
- TGI (HS 578T breast): > 100 µM
- TGI (HT29 colon): > 100 µM
- TGI (IGROV1 ovarian): > 100 µM
- TGI (K-562 leukemia): > 100000 nM
- TGI (KM12 colon): > 100 µM
- TGI (LOX IMVI melanoma): > 100 µM
- TGI (M14 melanoma): > 100 µM
- TGI (MALME-3M melanoma): > 100 µM
- TGI (MCF7 breast): > 100 µM
- TGI (MDA-MB-231 breast): > 100 µM
- TGI (MDA-MB-435): > 100 µM
- TGI (MDA-N): > 100 µM
- TGI (MOLT-4 leukemia): > 100 µM
- TGI (NCI-H226 lung): > 100 µM
- TGI (NCI-H23 lung): > 100 µM
- TGI (NCI-H460 lung): > 100 µM
- TGI (NCI-H522 lung): > 100 µM
- TGI (NCI/ADR-RES ovarian): > 100 µM
- TGI (OVCAR-3 ovarian): > 100 µM
- TGI (OVCAR-4 ovarian): > 100 µM
- TGI (OVCAR-5 ovarian): > 100 µM
- TGI (OVCAR-8 ovarian): > 100 µM
- TGI (PC-3 prostate): > 100 µM
- TGI (RPMI-8226 leukemia): > 100 µM
- TGI (RXF 393 renal): > 100 µM
- TGI (SF-268 CNS): > 100 µM
- TGI (SF-295 CNS): > 100 µM
- TGI (SF-539 CNS): > 100 µM
- TGI (SK-MEL-2 melanoma): > 100 µM
- TGI (SK-MEL-28 melanoma): > 100 µM
- TGI (SK-MEL-5 melanoma): > 100 µM
- TGI (SK-OV-3 ovarian): > 100 µM
- TGI (SN12C renal): > 100 µM
- TGI (SNB-19 CNS): > 100 µM
- TGI (SNB-75 CNS): > 100 µM
- TGI (SR leukemia): > 100 µM
- TGI (SW-620 colon): > 100 µM
- TGI (T-47D breast): > 100 µM
- TGI (TK-10 renal): > 100 µM
- TGI (U251 CNS): > 100 µM
- TGI (UACC-257 melanoma): > 100 µM
- TGI (UACC-62 melanoma): > 100 µM
- TGI (UO-31 renal): > 100 µM

Compound: C=CCC(C(=O)OC)C1(C(=O)OC)c2[nH]c3ccccc3c2CCN1Cc1ccccc1 (centres undefined)
- TGI (786-0 renal): > 100 µM
- TGI (A498 renal): > 100 µM
- TGI (A549 NSCLC): > 100 µM
- TGI (CAKI-1 renal): > 100 µM
- TGI (CCRF-CEM leukemia): > 100 µM
- TGI (COLO 205 colon): > 100 µM
- TGI (DLD-1 colon): > 100 µM
- TGI (DMS 114 small cell lung): > 100 µM
- TGI (EKVX NSCLC): > 100 µM
- TGI (HCC-2998 colon): > 100 µM
- TGI (HCT-116 colon): > 100 µM
- TGI (HCT-15 colon): > 100 µM
- TGI (HL-60(TB) leukemia): > 100 µM
- TGI (HOP-62 NSCLC): > 100 µM
- TGI (HOP-92 NSCLC): 74.6 µM
- TGI (HT29 colon): > 100 µM
- TGI (IGROV1 ovarian): > 100 µM
- TGI (KM12 colon): > 100 µM
- TGI (KM20L2 colon): > 100 µM
- TGI (M14 melanoma): > 100 µM
- TGI (M19-MEL melanoma): > 100 µM
- TGI (MALME-3M melanoma): > 100 µM
- TGI (MOLT-4 leukemia): > 100 µM
- TGI (NCI-H23 lung): > 100 µM
- TGI (NCI-H522 lung): > 100 µM
- TGI (OVCAR-3 ovarian): > 100 µM
- TGI (OVCAR-4 ovarian): > 100 µM
- TGI (OVCAR-5 ovarian): > 100 µM
- TGI (OVCAR-8 ovarian): > 100 µM
- TGI (RPMI-8226 leukemia): > 100 µM
- TGI (RXF 393 renal): > 100 µM
- TGI (SF-268 CNS): > 100 µM
- TGI (SF-295 CNS): > 100 µM
- TGI (SF-539 CNS): > 100 µM
- TGI (SK-MEL-2 melanoma): > 100 µM
- TGI (SK-MEL-28 melanoma): > 100 µM
- TGI (SK-MEL-5 melanoma): > 100 µM
- TGI (SK-OV-3 ovarian): > 100 µM
- TGI (SN12C renal): > 100 µM
- TGI (SNB-19 CNS): > 100 µM
- TGI (SNB-75 CNS): > 100 µM
- TGI (SR leukemia): > 100 µM
- TGI (SW-620 colon): > 100 µM
- TGI (TK-10 renal): > 100 µM
- TGI (U251 CNS): > 100 µM
- TGI (UACC-62 melanoma): > 100 µM
- TGI (UO-31 renal): > 100 µM

Compound: Cc1c2cc[n+](COC(=O)c3ccccc3)cc2c(C)c2c1[nH]c1ccccc12
- TGI (A498 renal): 2.48 µM
- TGI (CCRF-CEM leukemia): 2.91 µM
- TGI (HL-60(TB) leukemia): 2.72 µM
- TGI (HOP-18 NSCLC): 1930 nM
- TGI (K-562 leukemia): 1520 nM
- TGI (MOLT-4 leukemia): 1.59 µM
- TGI (OVCAR-5 ovarian): 2.39 µM
- TGI (OVCAR-8 ovarian): 2.11 µM
- TGI (RPMI-8226 leukemia): 2.92 µM
- TGI (SF-539 CNS): 1.48 µM
- TGI (SN12C renal): 1.79 µM
- TGI (SNB-19 CNS): 52.6 µM
- TGI (UO-31 renal): 4.82 µM
